In paper PMC5668434, “Modulation of telomere protection by the PI3K/AKT pathway” (Nature Communications, 2017):
Like-named read-outs stand apart in the source and are kept apart here.

Columns and labels:
PI3K (p110α) = target: T1, PI3K (p110α) (Homo sapiens, UniProt P42336); experiment: PI3K alpha biochemical assay (ADP Hunter Plus); details: for IC50: internal data, read-out: PI3Kα IC50
T1 construct: purchased Cama Biosciences (sic; Carna Biosciences) #07CBS-0402A

mTOR (FRAP1) = target: T2, mTOR (FRAP1) (Homo sapiens, UniProt P42345); experiment: mTOR biochemical assay (LanthaScreen); details: for IC50: internal data
T2 construct: purchased ThermoFisher PV4753

[1] = system: p-AKT S473 in CHA-9.3 mouse lung cancer cell line; experiment: Western blot of AKT phosphorylation at Ser473 in CHA-9.3 cells; format: cell-based; details: for p-AKT S473 inhibition (in words): 10 μM time course; for inhibition at 10 µM: Mus musculus, read-out: Inhibition pAKT (Ser 473) with regard to DMSO
Method: These new chemical probes were prepared by replacement of a single key oxygen atom from the morpholine moiety by a methylene group, generating the piperidine derivatives ETP-51259 and ETP-50952 (Fig. 1a). To assess their PI3K cellular activity, we measured phosphorylation of residue Ser473 in AKT (p-AKT S473), a PI3K downstream target[61]–[63], by western blot analysis. To this end, we used the CHA-9.3 mouse lung cancer cell line previously generated by us[39]. […] Of note, the inhibitory activity of ETP-47037 was more prolonged than that of ETP-47228. Thus, ETP-47037 mediated p-AKT S473 inhibition was maintained during the 24-hour treatment while the ETP-47228 mediated inhibition decreased 35% after 24 h as compared to 1-h treatment but still was able to inhibit the pathway above 50% (Fig. 1c).
For detection of AKT, PRAS40 (T246) and pS6 in CHA9.3 cells, untreated control (DMSO) or treated with the indicated inhibitors, were lysed in RIPA buffer supplemented with 100 mM pefablock (Roche Diagnostics) and protease inhibitor cocktail (Roche Molecular Biochemicals). Proteins were resolved on 10% SDS-PAGE, and transferred to nitrocellulose membrane (Amersham^TM Protan^TM 0.2 µm nNC). Membranes were incubated with antibodies against phospho-AKT (Ser473), AKT, phospo-S6 (Ser 235/236), and S6Ribosomal from Cell Signaling, phospo-PRAS40 (Thr246) from BIOSURCE and anti α-tubulin form Sigma, overnight at 4 °C. After washing, blots were incubated with secondary antibody: Alexa Fluor 680 goat anti-rabbit IgG (Invitrogen) or anti-mouse IgG DyLight 800 conjugated (Thermo Scientific), and visualized using an Odyssey infrared imaging system (Li-Cor Biosciences).

[2] = system: TRF1 foci in CHA-9.3 mouse lung tumor cell line; experiment: TRF1 foci immunofluorescence in CHA-9.3 cells; format: cell-based; details: for Inhibition of TRF1 foci (in words): 10 μM (GSK-2126458 1.0 μM)
Method: TRF1 immunofluorescence of TRF1 was performed in lung tumor-derived cell line (CHA9.3) and in MEFs[39]. A rat monoclonal antibody against mouse TRF1 developed by the Monoclonal antibody unit at CNIO was used to detect endogenous TRF1 (1:500). GFP-TRF1 fluorescence was directly measured in cells fixed in paraformaldehyde. For quantification of TRF1 foci intensity, pictures of fixed cells were automatically acquired from each well by the Opera HCS system (Perkin Elmer). Sixty images of random fields per well, with a 40× magnification lens, were taken under non-saturating conditions. At least 1 × 10^3 cells were analyzed for each well. Briefly, images were segmented using the DAPI staining to generate masks matching cell nuclei from which-TRF1 foci were analyzed.

PI3Kβ = details: reported in literature, cited from earlier work
PI3Kα = details: reported in literature, cited from earlier work
PI3Kγ = details: reported in literature, cited from earlier work
mTOR = details: reported in literature; cited from earlier work
PI3Kδ = details: reported in literature, cited from earlier work
[3] = system: TRF1 mRNA in CHA 9-3 lung cancer cells; experiment: TRF1 mRNA by qPCR; format: cell-based, mouse; details: 10 μM, 24 h
[4] = target: the molecule itself; experiment: western blot after SDS-PAGE in non-reducing conditions; nuclear extracts of Trf1-deleted MEFs expressing the GFP-tagged TRF1 variant, prepared without dithiothreitol and 2-mercaptoethanol, not heated before gel loading; blot against TRF1; one wild-type sample in reducing conditions shows the monomer

T1 sequence (P42336 whole entry): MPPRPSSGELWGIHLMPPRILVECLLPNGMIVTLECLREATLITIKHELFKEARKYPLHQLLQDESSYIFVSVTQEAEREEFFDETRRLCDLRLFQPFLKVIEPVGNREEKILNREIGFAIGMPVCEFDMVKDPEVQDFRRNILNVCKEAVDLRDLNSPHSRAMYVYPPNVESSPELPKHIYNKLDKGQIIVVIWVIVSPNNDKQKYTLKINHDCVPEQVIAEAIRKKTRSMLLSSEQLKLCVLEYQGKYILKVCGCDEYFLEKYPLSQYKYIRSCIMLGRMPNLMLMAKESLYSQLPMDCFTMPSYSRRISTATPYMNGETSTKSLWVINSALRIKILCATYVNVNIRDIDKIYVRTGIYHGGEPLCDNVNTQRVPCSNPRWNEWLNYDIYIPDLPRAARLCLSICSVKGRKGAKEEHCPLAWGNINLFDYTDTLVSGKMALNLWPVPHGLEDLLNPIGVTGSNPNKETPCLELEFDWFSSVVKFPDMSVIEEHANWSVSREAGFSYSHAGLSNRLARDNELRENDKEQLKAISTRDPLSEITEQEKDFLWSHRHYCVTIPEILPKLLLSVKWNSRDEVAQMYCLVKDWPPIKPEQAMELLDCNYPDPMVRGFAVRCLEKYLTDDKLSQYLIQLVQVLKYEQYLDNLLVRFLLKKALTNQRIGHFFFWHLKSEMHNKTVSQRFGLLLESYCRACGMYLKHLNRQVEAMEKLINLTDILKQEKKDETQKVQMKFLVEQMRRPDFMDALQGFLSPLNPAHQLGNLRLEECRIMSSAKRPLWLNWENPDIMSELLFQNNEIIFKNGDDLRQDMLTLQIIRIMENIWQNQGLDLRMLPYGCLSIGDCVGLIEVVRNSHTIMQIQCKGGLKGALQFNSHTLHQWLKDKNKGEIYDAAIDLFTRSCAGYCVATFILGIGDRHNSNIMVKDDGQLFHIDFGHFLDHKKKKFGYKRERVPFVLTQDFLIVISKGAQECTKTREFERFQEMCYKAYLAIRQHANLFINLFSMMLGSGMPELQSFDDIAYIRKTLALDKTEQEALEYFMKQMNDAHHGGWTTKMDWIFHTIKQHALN
T1 sequence (P27986 whole entry partner): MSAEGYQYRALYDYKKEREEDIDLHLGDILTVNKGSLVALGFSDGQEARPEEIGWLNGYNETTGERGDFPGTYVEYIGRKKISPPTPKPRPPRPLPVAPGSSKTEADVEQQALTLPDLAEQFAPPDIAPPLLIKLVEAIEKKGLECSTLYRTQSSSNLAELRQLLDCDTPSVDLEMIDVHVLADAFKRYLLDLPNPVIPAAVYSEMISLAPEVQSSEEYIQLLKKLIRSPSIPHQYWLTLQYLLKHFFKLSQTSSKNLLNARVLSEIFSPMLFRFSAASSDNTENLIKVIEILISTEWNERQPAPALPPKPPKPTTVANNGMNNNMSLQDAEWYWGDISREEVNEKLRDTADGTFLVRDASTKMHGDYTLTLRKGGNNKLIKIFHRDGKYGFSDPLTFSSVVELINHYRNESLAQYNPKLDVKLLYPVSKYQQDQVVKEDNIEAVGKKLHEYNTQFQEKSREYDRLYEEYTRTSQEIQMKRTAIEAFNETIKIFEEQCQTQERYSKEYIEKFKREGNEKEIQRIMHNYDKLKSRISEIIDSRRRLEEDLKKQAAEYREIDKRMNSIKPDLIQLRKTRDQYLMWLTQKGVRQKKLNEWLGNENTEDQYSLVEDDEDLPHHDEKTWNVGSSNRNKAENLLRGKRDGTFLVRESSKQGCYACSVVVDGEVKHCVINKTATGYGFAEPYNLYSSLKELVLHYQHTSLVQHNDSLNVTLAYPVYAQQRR
T2 sequence (P42345 1360-2549 limits assumed): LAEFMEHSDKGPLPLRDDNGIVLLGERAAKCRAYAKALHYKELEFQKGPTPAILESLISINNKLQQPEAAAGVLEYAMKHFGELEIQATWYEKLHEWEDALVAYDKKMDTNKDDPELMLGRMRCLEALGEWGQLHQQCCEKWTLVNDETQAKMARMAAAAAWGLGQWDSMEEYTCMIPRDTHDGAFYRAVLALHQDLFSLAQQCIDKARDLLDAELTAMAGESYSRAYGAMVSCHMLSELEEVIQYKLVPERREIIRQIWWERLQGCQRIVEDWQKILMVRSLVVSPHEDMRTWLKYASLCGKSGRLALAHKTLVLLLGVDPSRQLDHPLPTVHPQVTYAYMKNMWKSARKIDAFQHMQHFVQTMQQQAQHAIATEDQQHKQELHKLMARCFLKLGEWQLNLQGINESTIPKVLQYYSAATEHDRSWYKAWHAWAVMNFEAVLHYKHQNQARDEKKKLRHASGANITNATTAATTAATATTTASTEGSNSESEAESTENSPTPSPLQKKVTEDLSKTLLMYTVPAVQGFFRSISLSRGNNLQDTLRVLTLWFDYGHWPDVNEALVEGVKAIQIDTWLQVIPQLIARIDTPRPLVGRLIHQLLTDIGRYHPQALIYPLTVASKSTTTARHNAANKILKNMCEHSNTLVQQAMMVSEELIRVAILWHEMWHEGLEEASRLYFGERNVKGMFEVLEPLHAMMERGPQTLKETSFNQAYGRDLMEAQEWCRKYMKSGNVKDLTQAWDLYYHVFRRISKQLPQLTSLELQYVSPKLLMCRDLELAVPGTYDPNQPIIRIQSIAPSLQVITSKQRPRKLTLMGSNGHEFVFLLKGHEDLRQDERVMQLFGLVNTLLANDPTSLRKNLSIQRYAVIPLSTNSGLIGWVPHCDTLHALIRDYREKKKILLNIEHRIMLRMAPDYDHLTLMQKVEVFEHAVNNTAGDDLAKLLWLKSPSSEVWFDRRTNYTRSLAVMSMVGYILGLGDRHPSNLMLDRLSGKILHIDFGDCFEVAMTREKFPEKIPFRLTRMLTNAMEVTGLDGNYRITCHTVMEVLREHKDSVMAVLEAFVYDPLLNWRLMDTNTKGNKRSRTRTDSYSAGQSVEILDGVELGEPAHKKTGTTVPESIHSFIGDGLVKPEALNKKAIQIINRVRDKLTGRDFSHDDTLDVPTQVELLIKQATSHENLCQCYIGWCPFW

For Cc1cnc2c(N3CCCCC3)nc(-c3ccc(NC(=O)Nc4ccc(C(=O)N5CCN(C)CC5)cc4)cc3)cn12 [ETP-50952], the “Activity against PI3K (in words)” value (PI3K (p110α)) was “negligible activity against PI3K”, the IC50 (PI3K (p110α)) was 9 µM and the IC50 (mTOR (FRAP1)) was over 10 µM. The “p-AKT S473 inhibition (in words)” value [1] was “largely unaffected”, the inhibition at 10 µM ([1]; 1 h, 1 h) was 38% and the inhibition at 10 µM ([1]; 4 h, 4 h) was 18%. For the same molecule, the inhibition at 10 µM ([1]; 24 h, 24 h) was 10% and the “Inhibition of TRF1 foci (in words)” value ([2]; 24 h, CHA-9.3) was “negligible inhibition of TRF1 foci”.

For CC(C)C[C@H](NC(=O)[C@H](Cc1ccccc1)NC(=O)c1cnccn1)B(O)O [Bortezomib, reference compound], the TRF1 intensity levels ([2]; bortezomib 50 nM, CHA 9-3) was “twofold increase”.

In the case of Cc1cc(C(C)Nc2ccccc2)c2nc(N3CCOCC3)cc(=O)n2c1 (stereo not drawn) [TGX-221, reference compound], the “PI3Kα inhibition (in words)” value (PI3K (p110α)) is reported as “negligible PI3Kα inhibition”, the “Phosphorylation of AKT (p-AKT S473) (in words)” value ([1]; 10 μM (GSK-2126458 1.0 μM), 24 h) is reported as “moderate inhibition” and the inhibition at 10 µM ([2]; Mus musculus, 10 μM, 24 h, CHA-9.3, relative to DMSO, read-out: Inhibition of TRF1 foci fluorescence) is reported as 10%. For the same molecule, the IC50 (PI3Kβ) was […] and the “Reported selectivity for PI3Kβ vs. PI3Kα” value (PI3Kβ) was […].

For Cn1c(=O)n(-c2ccc(C(C)(C)C#N)cc2)c2c3cc(-c4cnc5ccccc5c4)ccc3ncc21 [BEZ-235], the “mTOR inhibition (in words)” value (mTOR (FRAP1)) is listed as “potent nanomolar mTOR inhibition”, the IC50 (PI3Kα) is listed as 4 nM and the IC50 (PI3Kβ) is listed as 5 nM. For the same molecule, the IC50 (PI3Kγ) was 75 nM and the IC50 (mTOR) was […].

For COCCNC(=O)c1nc2c(N3CCOCC3)nc(-c3cnc(N)nc3)cn2c1C [ETP-46992], the IC50 (mTOR (FRAP1)) is given as 3.69 µM, the Ki (PI3Kα; read-out: Reported data PI3Kα Kiapp) is given as 2.4 nM and the Ki (PI3Kβ; read-out: Reported data PI3Kβ Kiapp) is given as […]. For the same molecule, the Ki (PI3Kδ; read-out: Reported data PI3Kδ Kiapp) was […], the Ki (PI3Kγ; read-out: Reported data PI3Kγ Kiapp) was […] and the IC50 (mTOR) was over 3000 nM.

In the case of CS(=O)(=O)N1CCN(Cc2cc3c(N4CCCCC4)nc(-c4cnc(N)nc4)cn3n2)CC1 [ETP-51259], the “Activity against PI3K (in words)” value (PI3K (p110α)) is reported as “negligible activity against PI3K”, the IC50 (PI3K (p110α)) is reported as over 10 µM and the IC50 (mTOR (FRAP1)) is reported as over 10 µM. The “p-AKT S473 inhibition (in words)” value [1] was “largely unaffected”, the inhibition at 10 µM ([1]; 1 h, 1 h) was 48% and the inhibition at 10 µM ([1]; 4 h, 4 h) was 49%. The inhibition at 10 µM ([1]; 16 h, 16 h) was 4% and the “Inhibition of TRF1 foci (in words)” value ([2]; 24 h, CHA-9.3) was “negligible inhibition of TRF1 foci”.

For CS(=O)(=O)N1CCN(Cc2cc3nc(-c4cccc5[nH]ncc45)nc(N4CCOCC4)c3s2)CC1 [GDC-0941, 2-(1H-indazol-4-yl)-6-(4-methanesulfonyl-piperazin-1-ylmethyl)-4-morpholin-4-yl-t hieno[3,2-d]pyrimidine], the “TRF1 mRNA levels” value [3] is listed as “None of the inhibitors significantly affected”, the IC50 (PI3Kβ) is listed as […] and the IC50 (PI3Kδ) is listed as […]. For the same molecule, the IC50 (PI3Kγ) was […].

B1: eGFP-tagged TRF1 wild type (natural protein, mouse, UniProt P70371 1-421, looked up)
chain: MAETVSSAARDAPSREGWTDSDSPEQEEVGDDAELLQCQLQLGTPREMENAELVAEVEAVAAGWMLDFLCLSLCRAFRDGRSEDFRRTRDSAEAIIHGLHRLTAYQLKTVYICQFLTRVASGKALDAQFEVDERITPLESALMIWNSIEKEHDKLHDEIKNLIKIQAVAVCMEIGSFKEAEEVFERIFGDPEFYTPLERKLLKIISQKDVFHSLFQHFSYSCMMEKIQSYVGDVLSEKSSTFLMKAATKVVENEKARTQASKDRPDATNTGMDTEVGLNKEKSVNGQQSTETEPLVDTVSSIRSHKNALSQLKHRRAPSDFSRNEARTGTLQCETTMERNRRTSGRNRLCVSENQPDTDDKSGRRKRQTWLWEEDRILKCGVKKYGEGNWAKILSHYKFNNRTSVMLKDRWRTMKRLKLIS
notes: insert of the retroviral vector eGFP-TRF1 pWzl-Hygro; also called GFP-TRF1; eGFP-TRF1; source: Trf1 lox/lox MEFs, retroviral transduction (eGFP-TRF1 pWzl-Hygro), endogenous Trf1 deleted with Cre, in nuclear extract
For B1, the “stoichiometry N” value [4] was 2.

B2: eGFP-tagged TRF1 T330A/S344A (natural protein, mouse, UniProt P70371 1-421, looked up)
chain: MAETVSSAARDAPSREGWTDSDSPEQEEVGDDAELLQCQLQLGTPREMENAELVAEVEAVAAGWMLDFLCLSLCRAFRDGRSEDFRRTRDSAEAIIHGLHRLTAYQLKTVYICQFLTRVASGKALDAQFEVDERITPLESALMIWNSIEKEHDKLHDEIKNLIKIQAVAVCMEIGSFKEAEEVFERIFGDPEFYTPLERKLLKIISQKDVFHSLFQHFSYSCMMEKIQSYVGDVLSEKSSTFLMKAATKVVENEKARTQASKDRPDATNTGMDTEVGLNKEKSVNGQQSTETEPLVDTVSSIRSHKNALSQLKHRRAPSDFSRNEARTGALQCETTMERNRRTAGRNRLCVSENQPDTDDKSGRRKRQTWLWEEDRILKCGVKKYGEGNWAKILSHYKFNNRTSVMLKDRWRTMKRLKLIS
notes: insert of the retroviral vector eGFP-TRF1 pWzl-Hygro with T330A and S344A; Made by site-directed mutagenesis of the vector of m1 with the primers mTRF1-T330A and mTRF1-S344A; also called TRF1 double mutant; GFP-TRF1 T330A/S344A
In the case of B2, the “stoichiometry N” value [4] is reported as 2.

B3: eGFP-tagged TRF1 T330A (natural protein, mouse, UniProt P70371 1-421, looked up)
chain: MAETVSSAARDAPSREGWTDSDSPEQEEVGDDAELLQCQLQLGTPREMENAELVAEVEAVAAGWMLDFLCLSLCRAFRDGRSEDFRRTRDSAEAIIHGLHRLTAYQLKTVYICQFLTRVASGKALDAQFEVDERITPLESALMIWNSIEKEHDKLHDEIKNLIKIQAVAVCMEIGSFKEAEEVFERIFGDPEFYTPLERKLLKIISQKDVFHSLFQHFSYSCMMEKIQSYVGDVLSEKSSTFLMKAATKVVENEKARTQASKDRPDATNTGMDTEVGLNKEKSVNGQQSTETEPLVDTVSSIRSHKNALSQLKHRRAPSDFSRNEARTGALQCETTMERNRRTSGRNRLCVSENQPDTDDKSGRRKRQTWLWEEDRILKCGVKKYGEGNWAKILSHYKFNNRTSVMLKDRWRTMKRLKLIS
notes: insert of the retroviral vector eGFP-TRF1 pWzl-Hygro with T330A; Made by site-directed mutagenesis of the vector of m1 with the primer mTRF1-T330A; also called GFP-TRF1 T330A
In the case of B3, the “stoichiometry N” value [4] is reported as 2.

B4: eGFP-tagged TRF1 T248A (natural protein, mouse, UniProt P70371 1-421, looked up)
chain: MAETVSSAARDAPSREGWTDSDSPEQEEVGDDAELLQCQLQLGTPREMENAELVAEVEAVAAGWMLDFLCLSLCRAFRDGRSEDFRRTRDSAEAIIHGLHRLTAYQLKTVYICQFLTRVASGKALDAQFEVDERITPLESALMIWNSIEKEHDKLHDEIKNLIKIQAVAVCMEIGSFKEAEEVFERIFGDPEFYTPLERKLLKIISQKDVFHSLFQHFSYSCMMEKIQSYVGDVLSEKSSTFLMKAAAKVVENEKARTQASKDRPDATNTGMDTEVGLNKEKSVNGQQSTETEPLVDTVSSIRSHKNALSQLKHRRAPSDFSRNEARTGTLQCETTMERNRRTSGRNRLCVSENQPDTDDKSGRRKRQTWLWEEDRILKCGVKKYGEGNWAKILSHYKFNNRTSVMLKDRWRTMKRLKLIS
notes: insert of the retroviral vector eGFP-TRF1 pWzl-Hygro with T248A; Made by site-directed mutagenesis of the vector of m1 with the primer mTRF1-T248A; also called GFP-TRF1 T248A
In the case of B4, the “stoichiometry N” value [4] is reported as 2.

B5: eGFP-tagged TRF1 S344A (natural protein, mouse, UniProt P70371 1-421, looked up)
chain: MAETVSSAARDAPSREGWTDSDSPEQEEVGDDAELLQCQLQLGTPREMENAELVAEVEAVAAGWMLDFLCLSLCRAFRDGRSEDFRRTRDSAEAIIHGLHRLTAYQLKTVYICQFLTRVASGKALDAQFEVDERITPLESALMIWNSIEKEHDKLHDEIKNLIKIQAVAVCMEIGSFKEAEEVFERIFGDPEFYTPLERKLLKIISQKDVFHSLFQHFSYSCMMEKIQSYVGDVLSEKSSTFLMKAATKVVENEKARTQASKDRPDATNTGMDTEVGLNKEKSVNGQQSTETEPLVDTVSSIRSHKNALSQLKHRRAPSDFSRNEARTGTLQCETTMERNRRTAGRNRLCVSENQPDTDDKSGRRKRQTWLWEEDRILKCGVKKYGEGNWAKILSHYKFNNRTSVMLKDRWRTMKRLKLIS
notes: insert of the retroviral vector eGFP-TRF1 pWzl-Hygro with S344A; Made by site-directed mutagenesis of the vector of m1 with the primer mTRF1-S344A; also called GFP-TRF1 S344A
In the case of B5, the “stoichiometry N” value [4] is reported as 2.
